From ChEMBL document CHEMBL3526112, “Brain uptake of the drug of abuse γ-hydroxybutyric acid in rats” (Drug Metab Dispos, 2012)

Columns and labels:
[1] = Drug uptake in rat RBE4 cells at 10 mM at pH 6.5 up to 10 mins by Michaelis-Menten analysis relative to at pH 7.4; type: ADME, cell-based; details: rbe4, pH 6.5, 10 min, 10000 µM
[2] = Tmax in Sprague-Dawley rat extracellular fluid of brain at 600 mg/kg, iv; type: ADME, organism-based; design: dose 600 mg/kg, route intravenous
[3] = Tmax in Sprague-Dawley rat plasma at 600 mg/kg, iv; type: ADME, organism-based; design: dose 600 mg/kg, route intravenous
[4] = Cmax in Sprague-Dawley rat extracellular fluid of brain at 600 mg/kg, iv; type: ADME, organism-based; design: dose 600 mg/kg, route intravenous; details: in vivo
[5] = Drug uptake in rat RBE4 cells at pH 7.4 up to 10 mins by Michaelis-Menten analysis; type: ADME, cell-based
[6] = Drug uptake in human hCMEC/D3 cells at pH 7.4 up to 10 mins by Michaelis-Menten analysis; type: ADME, cell-based
[7] = Dissociation constant, pKa of the compound; type: physicochemical
[8] = Tmax in Sprague-Dawley rat extracellular fluid of brain at 400 mg/kg, iv; type: ADME, organism-based; design: dose 400 mg/kg, route intravenous
Plasma [9] = test: AUC in Sprague-Dawley rat plasma at 800 mg/kg, iv; type: ADME, organism-based; design: dose 800 mg/kg, route intravenous; details: in vivo
[10] = Tmax in Sprague-Dawley rat plasma at 400 mg/kg, iv; type: ADME, organism-based; design: dose 400 mg/kg, route intravenous
Brain [11] = test: AUC in Sprague-Dawley rat extracellular fluid of brain at 800 mg/kg, iv; type: ADME, organism-based; design: dose 800 mg/kg, route intravenous; details: in vivo
[12] = Tmax in Sprague-Dawley rat plasma at 800 mg/kg, iv; type: ADME, organism-based; design: dose 800 mg/kg, route intravenous
[13] = Drug recovery in Sprague-Dawley rat brain frontal cortex at 400 to 800 mg/kg, iv by microdialysis; type: ADME, organism-based; design: dose 400-800 mg/kg, route intravenous; details: in vivo
Brain [14] = test: AUC in Sprague-Dawley rat extracellular fluid of brain at 400 mg/kg, iv; type: ADME, organism-based; design: dose 400 mg/kg, route intravenous; details: in vivo
[15] = Drug uptake in rat RBE4 cells at 58 nM at pH 7.4 after 15 to 30 seconds by liquid scintillation counting; type: ADME, cell-based; details: rbe4, pH 7.4, 0.058 µM
Plasma [16] = test: Cmax in Sprague-Dawley rat plasma at 800 mg/kg, iv after 30 to 180 mins; type: ADME, organism-based; design: dose 800 mg/kg, route intravenous; details: in vivo
[17] = Renal clearance in Sprague-Dawley rat at 600 mg/kg, iv; type: ADME, organism-based, Kidney; design: dose 600 mg/kg, route intravenous; details: in vivo
[18] = Tmax in Sprague-Dawley rat extracellular fluid of brain at 800 mg/kg, iv; type: ADME, organism-based; design: dose 800 mg/kg, route intravenous
Plasma [19] = test: Cmax in Sprague-Dawley rat plasma at 600 mg/kg, iv after 30 to 180 mins; type: ADME, organism-based; design: dose 600 mg/kg, route intravenous; details: in vivo
Plasma [20] = test: Cmax in Sprague-Dawley rat plasma at 400 mg/kg, iv after 30 to 180 mins; type: ADME, organism-based; design: dose 400 mg/kg, route intravenous; details: in vivo
[21] = Drug uptake in human hCMEC/D3 cells at 58 nM at pH 7.4 after 15 to 30 seconds by liquid scintillation counting; type: ADME, cell-based; details: hcmec/d3, pH 7.4, 0.058 µM
Rattus norvegicus [22] = test: Increase of sleep time in Sprague-Dawley rat at 600 mg/kg, iv; type: functional
Rattus norvegicus [23] = test: Increase of sleep time in iv dosed Sprague-Dawley rat; type: functional, organism-based
[24] = Ratio of extracellular fluid of brain AUC to plasma AUC in Sprague-Dawley rat at 600 mg/kg, iv; type: ADME, organism-based; design: dose 600 mg/kg, route intravenous; details: read-out: Ratio AUC
Rattus norvegicus [25] = test: Increase of sleep time in Sprague-Dawley rat at 800 mg/kg, iv; type: functional
Plasma [26] = test: AUC in Sprague-Dawley rat plasma at 600 mg/kg, iv; type: ADME, organism-based; design: dose 600 mg/kg, route intravenous; details: in vivo
[27] = Cmax in Sprague-Dawley rat extracellular fluid of brain at 800 mg/kg, iv; type: ADME, organism-based; design: dose 800 mg/kg, route intravenous; details: in vivo
Brain [28] = test: AUC in Sprague-Dawley rat extracellular fluid of brain at 600 mg/kg, iv; type: ADME, organism-based; design: dose 600 mg/kg, route intravenous; details: in vivo
[29] = Cmax in Sprague-Dawley rat extracellular fluid of brain at 400 mg/kg, iv; type: ADME, organism-based; design: dose 400 mg/kg, route intravenous; details: in vivo
[30] = Renal clearance in Sprague-Dawley rat at 400 mg/kg, iv; type: ADME, organism-based, Kidney; design: dose 400 mg/kg, route intravenous; details: in vivo
Rattus norvegicus [31] = test: Increase of sleep time in Sprague-Dawley rat at 400 mg/kg, iv; type: functional
[32] = Ratio of extracellular fluid of brain AUC to plasma AUC in Sprague-Dawley rat at 800 mg/kg, iv; type: ADME, organism-based; design: dose 800 mg/kg, route intravenous; details: read-out: Ratio AUC
Plasma [33] = test: AUC in Sprague-Dawley rat plasma at 400 mg/kg, iv; type: ADME, organism-based; design: dose 400 mg/kg, route intravenous; details: in vivo
[34] = Ratio of extracellular fluid of brain AUC to plasma AUC in Sprague-Dawley rat at 400 mg/kg, iv; type: ADME, organism-based; design: dose 400 mg/kg, route intravenous; details: read-out: Ratio AUC
[35] = Drug uptake in human hCMEC/D3 cells at 10 mM at pH 6.5 up to 10 mins by Michaelis-Menten analysis relative to at pH 7.4; type: ADME, cell-based; details: hcmec/d3, pH 6.5, 10 min, 10000 µM
[36] = Renal clearance in Sprague-Dawley rat at 800 mg/kg, iv; type: ADME, organism-based, Kidney; design: dose 800 mg/kg, route intravenous; details: in vivo
Plasma [37] = test: Cmax in Sprague-Dawley rat plasma at 400 mg/kg, iv; type: ADME, organism-based; design: dose 400 mg/kg, route intravenous; details: in vivo

Which results are given for `O=C([O-])CCCO.[Na+]` [SODIUM OXYBATE]?
Drug uptake [1]: 126%; Tmax [2]: 50 min; Tmax [3]: 5 min; Cmax [4]: 550 µM; Km at 10 min ([5]; RBE4 cells, pH 7.4): 23.3 mM; Vmax ([5]; rbe4, pH 7.4, 10 min): 258 pmol/mg/min; Km at 10 min ([6]; hCMEC/D3 cells, pH 7.4): 18.1 mM; Vmax ([6]; hcmec/d3, pH 7.4, 10 min): 248 pmol/mg/min; pKa [7]: 4.72; Tmax [8]: 50 min; AUC (Plasma [9]): 145 mg·min/mL; Tmax [10]: 5 min; AUC (Brain [11]): 11.2 mg·min/mL; Tmax [12]: 5 min; Drug recovery [13]: 32.5%; AUC (Brain [14]): 4.9 mg·min/mL; Drug uptake [15]: Active; Cmax (Plasma [16]): 3400 µM; CL renal [17]: 1.41 mL/min/kg; Tmax [18]: 50 min; Cmax (Plasma [19]): 2400 µM; Cmax (Plasma [20]): 600 µM; Drug uptake [21]: Active; Time (Rattus norvegicus [22]): 138 min; Activity (Rattus norvegicus [23]): Dose-dependent effect; Kp [24]: 0.07; Time (Rattus norvegicus [25]): 171 min; AUC (Plasma [26]): 124 mg·min/mL; Cmax [27]: 660 µM; AUC (Brain [28]): 8.7 mg·min/mL; Cmax [29]: 390 µM; CL renal [30]: 1.55 mL/min/kg; Time (Rattus norvegicus [31]): 90.4 min; Kp [32]: 0.07; AUC (Plasma [33]): 66 mg·min/mL; Kp [34]: 0.079; Drug uptake [35]: 126%; CL renal [36]: 2.18 mL/min/kg; Cmax (Plasma [37]): 8400 µM
